Laboratory results: patent US9157104B2, “Method to improve phosphate solubilization in plants” (Consiglio Nazionale delle Ricerche, priority 2009, dated 2015)

Legend:
acid phosphatase = experiment: Acid phosphatase activity under P-starved conditions; format: cell-based, S. meliloti; details: phosphate starvation; vs 1021 cells; compounds 0.5 mM, 3 hours at 30° C.
S. meliloti 1021 = experiment: Microarray gene expression of 1021 cells treated with 0.5 mM compound; details: 1021 + 0.5 mM IAA vs untreated 1021; P-sufficient (13 mM);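 note: cells were harvested 3 h after the start of each treatment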
Protocol: For P starvation experiments, cells of 1021 wild-type and RD64 strains were grown at 30° C. to mid exponential phase (OD600=0.6) in RMM broth containing 1% (w/v) mannitol as carbon source and 13 mM P, washed with RMM containing 0 P, resuspended in the same medium and then divided into three cultures. No P (−P), 1.0 mM P (P-starved cells) or 13 mM P (+P cells also named P-sufficient cells) was added into the three cultures, respectively. The P-starved and P-sufficient 1021 wild type cells were treated for 3.0 hours with 0.5 mM IAA. […] To rule out that this bacteria could be partially starved for Trp, RD64 cells were also treated with 0.5 mM Trp and used for microarrays and RT-PCR analyses. […] After 3 hours of each treatment, cell batches were collected, freezed and stored at −80° C. for use in experiments.

[1] = tested on: pho operon genes in S. meliloti cells; experiment: Quantitative RT-PCR analysis of pho operon genes; format: cell-based; details: compounds 0.5 mM, 3 hours
Protocol: FIG. S1. Quantitative RT-PCR analysis of pho operon genes in S. meliloti cells under P-sufficient conditions (13 mM K-phosphate). The relative expression level was >1 for genes more highly expressed in RD64 and in 1021 cells treated for 3 hours with 0.5 mM IAA, Ind, Trp, ICA and 2,4-D. The relative expression level was <1 for genes more highly expressed in 1021 cells (control). Error bars represent the standard deviation from three independent biological experiments.
FIG. 1. Quantitative RT-PCR analysis of pho operon genes expression in S. meliloti cells under P-starving conditions. The relative expression level was >1 for genes more highly expressed in RD64 and in 1021 cells treated for 3 hours with 0.5 mM IAA, Ind, Trp, ICA and 2,4-D. The relative expression level was <1 for genes more highly expressed in 1021 cells (control). Error bars represent the standard deviation from five independent biological experiments (p<0.05).
Total RNA from P-sufficient and P-starved cells was isolated as previously described (5). cDNA were synthesized with the StrataScript™ reverse transcription reagents (Stratagene) and random hexamers as primers. Quantitative PCR was performed with the Power SYBR PCR Master Mix (Applied Biosystems). Reactions were run on the iCycler iQ (Bio-Rad). The thermo cycling condition were: 15 min at 95° C., 40 cycles of denaturation at 95° C. for 20 s, annealing (20 s) and extension (35 s) at 72° C. Specific primer pairs, designed using the Primer3 software, are shown.
smc02641 and smc00128 were used as housekeeping genes for data normalization in the comparative Ct method as previously described (8). Phosphatase Activity

S. meliloti cells = experiment: Organic acids exuded by S. meliloti cells (HPLC, GC-MS); format: cell-based; details: minimal medium containing 5% PR as the sole phosphate source; IAA 0.5 mM where added
Protocol: For phosphate solubilization experiments 5% Moroccan phosphate rock (PR) (Sigma-Aldrich, cat. No. 32) was used as P source. When 5% PR is used as P source to allow bacterial growth this is described as a P-limiting condition. At least five independent experiments were always performed.
The organic acids were determined by HPLC with a reverse-phase Hypersil GOLD C18 (100×4.6 mm) column (Thermo Electron Corporation). The operating conditions and quantification were previously described (20).
Organic acid fractions collected from HPLC were dried, derivatized to their tert-butyldimethylsilyl (tBDMS) derivatives and analysed on a Micromass GCT mass spectrometer (Waters corp, Manchester, UK) coupled to an Agilent 6890 Series gas chromatograph fitted with 7683 auto-sampler (Agilent Technologies, Palo Alto, Calif.) and ZB-5 ms (Phenomenex, Macclesfield, UK) caplillary column (30 m×0.25 mm I.D.×0.25 μm d.f. with 5 m Guardian). Samples were injected using splitless injection technique at 250° C. and a helium gas flow of 2.0 ml min^−1. The oven was set at 70° C. for 2 min, then ramped at 7° C. min^−1 to 350° C. and held for 5 min. The GC interface and source temperatures were set to 250° C. and EI^+ mass spectra were acquired at 70 eV from 0 to 47 min with an acquisition rate of 1 spectra/sec. Chromatographic peaks were identified either from existing mass spectral and retention time data from standards previously analysed at Rothamsted Research LTD (Harpenden Herts, UK) or from the NIST mass spectral database in conjunction with retention data obtained from the literature (30). Determination of the accurate mass, to within 5 ppm, of M^+, M-15^+, M-57^+ was used to verify analyte identifications. The chromatograms obtained for each sample were compared to the derivatization reagent blank.

[2] = Soluble phosphate release into bacterial free medium containing 5% PR; details: bacteria free media with addition of IAA (0.5 mM)
Text: FIG. 4. Changes in soluble phosphate release into the bacterial free medium containing 5% phosphate rock (PR) as P source (P-limiting conditions for bacteria growing in a minimal media with PR). […] The amounts of each added organic acids derived from the data obtained in HPLC analysis and were reported in the Material and Methods section. Data are the mean±SD of five independent biological experiments (p<0.006). The concentration of soluble phosphate was estimated using a modification of Fiske and Subarrow method as described by […] et al. (37). […] Bacterial free medium was also treated with 0.5 mM IAA solution. A media that simulates growth is a media without bacteria or their supernatant. The media comprises only RP and the organic acids used as purified powder commercially available (SIGMA), the organic acids concentration used are that produced by the bacteria when grown in a defined media (with IAA, or without, or from RFD64).

Q: Which acid phosphatase activity (acid phosphatase) does the source give for `O=C(O)Cc1c[nH]c2ccccc12` [IAA, indole-3-acetic acid] here?
A: The acid phosphatase activity was “increase”.

Q: And the “M (log2 ratio of intensities) Mc01302 rplP” value (S. meliloti 1021)?
A: The value was −1.862.

Q: What about the “M (log2 ratio of intensities) SMa1118 hspC2” value (S. meliloti 1021) of the same molecule?
A: Its value is 1.296.

Q: And the “M (log2 ratio of intensities) SMb20893 gguB” value (S. meliloti 1021)?
A: The value was 1.754.

Q: And the “M (log2 ratio of intensities) SMb20895 chvE” value (S. meliloti 1021)?
A: Its value is 1.425.

Q: What about the “M (log2 ratio of intensities) SMb20922 smb20922” value (S. meliloti 1021) of the same molecule?
A: Its value is 1.711.

Q: What about the “M (log2 ratio of intensities) SMb21174 phoT” value (S. meliloti 1021) of the same molecule?
A: Its value is −1.207.

Q: And the “M (log2 ratio of intensities) SMb21177 phoC” value (S. meliloti 1021)?
A: The value was −0.7939.

Q: What about the “M (log2 ratio of intensities) SMb21183 htpG” value (S. meliloti 1021) of the same molecule?
A: Its value is 1.384.

Q: And the “M (log2 ratio of intensities) SMb21197 oppB” value (S. meliloti 1021)?
A: The value was 1.111.

Q: And the “M (log2 ratio of intensities) SMc00363 rpmI” value (S. meliloti 1021)?
A: The value was −0.9807.

Q: What about the “M (log2 ratio of intensities) SMc00364 rplT” value (S. meliloti 1021) of the same molecule?
A: The value was −0.715.

Q: And the “M (log2 ratio of intensities) SMc00568 rpsF” value (S. meliloti 1021)?
A: The value was −0.7616.

Q: What about the “M (log2 ratio of intensities) SMc01103 rbsK” value (S. meliloti 1021) of the same molecule?
A: Its value is 1.2.

Q: And the “M (log2 ratio of intensities) SMc01169 ald” value (S. meliloti 1021)?
A: Its value is 3.025.

Q: And the “M (log2 ratio of intensities) SMc01291 rpmD” value (S. meliloti 1021)?
A: The value was −1.237.

Q: And the “M (log2 ratio of intensities) SMc01295 rpsH” value (S. meliloti 1021)?
A: The value was −0.8996.

Q: And the “M (log2 ratio of intensities) SMc01296 rpsN” value (S. meliloti 1021)?
A: The value was −0.8326.

Q: What about the “M (log2 ratio of intensities) SMc01301 rpmC” value (S. meliloti 1021) of the same molecule?
A: The value was −1.273.

Q: And the “M (log2 ratio of intensities) SMc01309 rplC” value (S. meliloti 1021)?
A: The value was −0.7247.

Q: What about the “M (log2 ratio of intensities) SMc01319 rplJ” value (S. meliloti 1021) of the same molecule?
A: Its value is −1.438.

Q: What about the “M (log2 ratio of intensities) SMc01628 smc01628” value (S. meliloti 1021) of the same molecule?
A: Its value is 0.7123.

Q: What about the “M (log2 ratio of intensities) SMc02475 smc02475” value (S. meliloti 1021) of the same molecule?
A: Its value is 0.7339.

Q: What about the “M (log2 ratio of intensities) SMc02514 smc02514” value (S. meliloti 1021) of the same molecule?
A: The value was 1.764.

Q: And the “M (log2 ratio of intensities) SMc02729 smc02729” value (S. meliloti 1021)?
A: Its value is 0.8942.

Q: What about the “M (log2 ratio of intensities) SMc02786 smc02786” value (S. meliloti 1021) of the same molecule?
A: Its value is 1.11.

Q: And the “M (log2 ratio of intensities) SMc03168 smc03168” value (S. meliloti 1021)?
A: The value was 1.165.

Q: And the “M (log2 ratio of intensities) SMc04087 smc04087” value (S. meliloti 1021)?
A: Its value is 1.593.

Q: What about the “expression level of all five pho genes (RT-PCR)” value ([1]; P-starved conditions, vs control 1021) of the same molecule?
A: Its value is “highly induced”.

Q: And the “phoB regulatory gene expression (qRT-PCR)” value ([1]; P-sufficient (13 mM K-phosphate), vs untreated 1021 cells)?
A: Its value is “down-regulated”.

Q: What about the “Organic acid content, Fumarate” value (S. meliloti cells) of the same molecule?
A: The value was 1.7 ± 0.1 mg/L.

Q: What about the “Organic acid content, Malate” value (S. meliloti cells) of the same molecule?
A: Its value is 86 ± 10 mg/L.

Q: What about the “Organic acid content, Succinate” value (S. meliloti cells) of the same molecule?
A: The value was 864 ± 79 mg/L.

Q: What about the “concentration of soluble P in bacteria free media” value [2] of the same molecule?
A: The value was “negligible”.
